From patent US6737383B1, “Herbicidal oxadiazolidines” (priority 1999, dated 2004)

Tests used:
surinam grass = test: Test B pre/postemergence surinam grass; assay type: in vivo, Brachiaria decumbens
Procedure, shortened: (§1)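 Response is a visual 0-to-10 score relative to untreated plants, where 0 means no effect and 10 means complete control, taken twelve to sixteen days after application. Treatments went onto soil at planting and onto foliage of 1- to 4-leaf plants, using a surfactant-containing non-phytotoxic solvent.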

corn = test: Test B pre/postemergence corn; assay type: in vivo, Zea mays
Procedure, shortened: as §1

soybean = test: Test B pre/postemergence soybean; assay type: in vivo, Glycine max
Procedure, shortened: as §1

wild oat = test: Test B pre/postemergence wild oat; assay type: in vivo, Avena fatua
Procedure, shortened: as §1

cocklebur = test: Test B pre/postemergence cocklebur; assay type: in vivo, Xanthium strumarium
Procedure, shortened: as §1

crabgrass = test: Test B pre/postemergence crabgrass; assay type: in vivo, Digitaria sanguinalis
Procedure, shortened: as §1

pigweed = test: Test B pre/postemergence pigweed; assay type: in vivo, Amaranthus retroflexus
Procedure, shortened: as §1

purple nutsedge = test: Test B pre/postemergence purple nutsedge; assay type: in vivo, Cyperus rotundus
Procedure, shortened: as §1

wheat = test: Test B pre/postemergence wheat; assay type: in vivo, Triticum aestivum
Procedure, shortened: as §1

bedstraw = test: Test B pre/postemergence bedstraw; assay type: in vivo, Galium aparine; settings: Preemergence
Procedure, shortened: as §1

sugar beet = test: Test B pre/postemergence sugar beet; assay type: in vivo, Beta vulgaris
Procedure, shortened: as §1

rape = test: Test B pre/postemergence rape; assay type: in vivo, Brassica napus
Procedure, shortened: as §1

giant foxtail = test: Test B pre/postemergence giant foxtail; assay type: in vivo, Setaria faberii
Procedure, shortened: as §1

morningglory = test: Test B pre/postemergence morningglory; assay type: in vivo, Ipomoea hederacea
Procedure, shortened: as §1

velvetleaf = test: Test B pre/postemergence velvetleaf; assay type: in vivo, Abutilon theophrasti
Procedure, shortened: as §1

blackgrass = test: Test B pre/postemergence blackgrass; assay type: in vivo, Alopecurus myosuroides
Procedure, shortened: as §1

[1] = Postemergence, Rate 62 g/ha, scale 0 to 10, 0 is no effect, 10 is complete control
[2] = Postemergence, Rate 125 g/ha, scale of 0 to 10 where 0 is no effect and 10 is complete control
[3] = Preemergence, Rate 125 g/ha, scale of 0 to 10 where 0 is no effect and 10 is complete control
[4] = Preemergence, Rate 250 g/ha, scale 0 (no effect) to 10 (complete control)
[5] = Rate 250 g/ha, Postemergence, scale 0 to 10, 0 is no effect, 10 is complete control
[6] = Rate 500 g/ha, Postemergence, scale 0 to 10, 0 is no effect, 10 is complete control
[7] = Rate 500 g/ha, Preemergence, scale 0 to 10 (0 no effect, 10 complete control)
[8] = Rate 62 g/ha, Preemergence, scale 0 to 10

With COC1CCC(Cn2c(=O)on(C(=O)N(c3ccc(Cl)cc3)C(C)C)c2=O)=NO1 (stereo not drawn) [Compound 760] the “Plant response rating, B. signalgrass” value (surinam grass; [1]) was 0, the “B. signalgrass plant response rating” value (surinam grass; [2]) was 0 and the “B. signalgrass plant response rating” value (surinam grass; Preemergence, Rate 62 g/ha, scale of 0 to 10 where 0 is no effect and 10 is complete control) was 2. The “Plant response rating, B. signalgrass” value (surinam grass; [3]) was 3, the “B. signalgrass plant response rating” value (surinam grass; [4]) was 10 and the “B. signalgrass plant response rating” value (surinam grass; [5]) was 0. For the same compound, the “B. signalgrass plant response rating” value (surinam grass; [6]) was 5, the “B. signalgrass plant response rating” value (surinam grass; [7]) was 10 and the “Plant response rating, Corn” value (corn; [1]) was 0. The “Corn plant response rating” value (corn; [2]) was 0, the “Plant response rating, Corn” value (corn; [3]) was 0 and the “Corn plant response rating” value (corn; [4]) was 0. For the same compound, the “Corn plant response rating” value (corn; [8]) was 0, the “Corn plant response rating” value (corn; [5]) was 1 and the “Corn plant response rating” value (corn; [6]) was 1. The “Corn plant response rating” value (corn; [7]) was 4, the “Plant response rating, Soybean” value (soybean; [1]) was 4 and the “Plant response rating, Soybean” value (soybean; [3]) was 0. For the same compound, the “Soybean plant response rating” value (soybean; [4]) was 0, the “Soybean plant response rating” value (soybean; [8]) was 0 and the “Soybean plant response rating” value (soybean; [5]) was 4. For the same compound, the “Soybean plant response rating” value (soybean; [6]) was 5, the “Soybean plant response rating” value (soybean; [7]) was 0 and the “Plant response rating, Wild oats” value (wild oat; [1]) was 0. For the same compound, the “Plant response rating, Wild oats” value (wild oat; [3]) was 0, the “Wild oats plant response rating” value (wild oat; [4]) was 2 and the “Wild oats plant response rating” value (wild oat; [8]) was 0. The “Wild oats plant response rating” value (wild oat; [5]) was 0, the “Wild oats plant response rating” value (wild oat; [6]) was 4 and the “Wild oats plant response rating” value (wild oat; [7]) was 6. For the same compound, the “Plant response rating, Cocklebur” value (cocklebur; [1]) was 0, the “Cocklebur plant response rating” value (cocklebur; [2]) was 0 and the “Cocklebur plant response rating” value (cocklebur; [4]) was 0. The “Cocklebur plant response rating” value (cocklebur; [8]) was 0, the “Cocklebur plant response rating” value (cocklebur; [5]) was 0 and the “Cocklebur plant response rating” value (cocklebur; [6]) was 1. For the same compound, the “Cocklebur plant response rating” value (cocklebur; [7]) was 0, the “Plant response rating, Crabgrass” value (crabgrass; [1]) was 5 and the “Crabgrass plant response rating” value (crabgrass; [2]) was 6. For the same compound, the “Plant response rating, Crabgrass” value (crabgrass; [3]) was 7, the “Crabgrass plant response rating” value (crabgrass; [4]) was 10 and the “Crabgrass plant response rating” value (crabgrass; [8]) was 2. For the same compound, the “Crabgrass plant response rating” value (crabgrass; [5]) was 9, the “Crabgrass plant response rating” value (crabgrass; [7]) was 10 and the “Plant response rating, Redroot pigweed” value (pigweed; [1]) was 0. For the same compound, the “Redroot pigweed plant response rating” value (pigweed; [2]) was 0, the “Plant response rating, Redroot pigweed” value (pigweed; [3]) was 7 and the “Redroot pigweed plant response rating” value (pigweed; [4]) was 9. For the same compound, the “Redroot pigweed plant response rating” value (pigweed; [8]) was 7, the “Redroot pigweed plant response rating” value (pigweed; [5]) was 2 and the “Redroot pigweed plant response rating” value (pigweed; [6]) was 3. The “Redroot pigweed plant response rating” value (pigweed; [7]) was 9, the “Plant response rating, Nutsedge” value (purple nutsedge; [1]) was 0 and the “Nutsedge plant response rating” value (purple nutsedge; [2]) was 0. For the same compound, the “Plant response rating, Nutsedge” value (purple nutsedge; [3]) was 0, the “Nutsedge plant response rating” value (purple nutsedge; [4]) was 0 and the “Nutsedge plant response rating” value (purple nutsedge; [8]) was 0. For the same compound, the “Nutsedge plant response rating” value (purple nutsedge; [5]) was 0, the “Nutsedge plant response rating” value (purple nutsedge; [6]) was 0 and the “Nutsedge plant response rating” value (purple nutsedge; [7]) was 0. The “Plant response rating, Wheat” value (wheat; [1]) was 0, the “Plant response rating, Wheat” value (wheat; [3]) was 0 and the “Wheat plant response rating” value (wheat; [4]) was 0. For the same compound, the “Wheat plant response rating” value (wheat; [8]) was 0, the “Wheat plant response rating” value (wheat; [5]) was 0 and the “Wheat plant response rating” value (wheat; [6]) was 0. For the same compound, the “Wheat plant response rating” value (wheat; [7]) was 3, the “Plant response rating, Bedstraw” value (bedstraw; Rate 125 g/ha, scale of 0 to 10 where 0 is no effect and 10 is complete control) was 0 and the “Bedstraw plant response rating” value (bedstraw; Rate 250 g/ha, scale 0 (no effect) to 10 (complete control)) was 0. For the same compound, the “Bedstraw plant response rating” value (bedstraw; Rate 62 g/ha, scale 0 to 10) was 0, the “Bedstraw plant response rating” value (bedstraw; Rate 500 g/ha, scale 0 to 10 (0 no effect, 10 complete control)) was 6 and the “Plant response rating, Sugarbeets” value (sugar beet; [1]) was 0. For the same compound, the “Plant response rating, Sugarbeets” value (sugar beet; [3]) was 3, the “Sugarbeets plant response rating” value (sugar beet; [4]) was 3 and the “Sugarbeets plant response rating” value (sugar beet; [8]) was 3. For the same compound, the “Sugarbeets plant response rating” value (sugar beet; [5]) was 0, the “Sugarbeets plant response rating” value (sugar beet; [6]) was 0 and the “Sugarbeets plant response rating” value (sugar beet; [7]) was 6. For the same compound, the “Plant response rating, Rape” value (rape; [1]) was 2, the “Rape plant response rating” value (rape; [2]) was 1 and the “Plant response rating, Rape” value (rape; [3]) was 0. The “Rape plant response rating” value (rape; [4]) was 2, the “Rape plant response rating” value (rape; [8]) was 0 and the “Rape plant response rating” value (rape; [5]) was 2. For the same compound, the “Rape plant response rating” value (rape; [6]) was 5, the “Rape plant response rating” value (rape; [7]) was 5 and the “Plant response rating, Giant foxtail” value (giant foxtail; [1]) was 0. The “Giant foxtail plant response rating” value (giant foxtail; [2]) was 7, the “Plant response rating, Giant foxtail” value (giant foxtail; [3]) was 9 and the “Giant foxtail plant response rating” value (giant foxtail; [4]) was 10. For the same compound, the “Giant foxtail plant response rating” value (giant foxtail; [8]) was 8, the “Giant foxtail plant response rating” value (giant foxtail; [5]) was 7 and the “Giant foxtail plant response rating” value (giant foxtail; [6]) was 7. For the same compound, the “Giant foxtail plant response rating” value (giant foxtail; [7]) was 10, the “Plant response rating, Morningglory” value (morningglory; [1]) was 3 and the “Morningglory plant response rating” value (morningglory; [2]) was 3. For the same compound, the “Plant response rating, Morningglory” value (morningglory; [3]) was 0, the “Morningglory plant response rating” value (morningglory; [4]) was 0 and the “Morningglory plant response rating” value (morningglory; [8]) was 0. For the same compound, the “Morningglory plant response rating” value (morningglory; [5]) was 3, the “Morningglory plant response rating” value (morningglory; [6]) was 3 and the “Morningglory plant response rating” value (morningglory; [7]) was 0. For the same compound, the “Plant response rating, Velvetleaf” value (velvetleaf; [1]) was 0, the “Plant response rating, Velvetleaf” value (velvetleaf; [3]) was 0 and the “Velvetleaf plant response rating” value (velvetleaf; [4]) was 0. The “Velvetleaf plant response rating” value (velvetleaf; [8]) was 0, the “Velvetleaf plant response rating” value (velvetleaf; [5]) was 0 and the “Velvetleaf plant response rating” value (velvetleaf; [6]) was 3. For the same compound, the “Velvetleaf plant response rating” value (velvetleaf; [7]) was 0, the “Plant response rating, Blackgrass” value (blackgrass; [1]) was 0 and the “Blackgrass plant response rating” value (blackgrass; [2]) was 0. The “Plant response rating, Blackgrass” value (blackgrass; [3]) was 4, the “Blackgrass plant response rating” value (blackgrass; [4]) was 6 and the “Blackgrass plant response rating” value (blackgrass; [8]) was 0. For the same compound, the “Blackgrass plant response rating” value (blackgrass; [5]) was 0, the “Blackgrass plant response rating” value (blackgrass; [6]) was 3 and the “Blackgrass plant response rating” value (blackgrass; [7]) was 9.
